Measurements as given in US7425638B2, “Cis-imidazolines” (Hoffmann-La Roche Inc., priority 2003, dated 2008).

These compounds were tested against recombinant GST-tagged MDM2 / p53 peptide (Homo sapiens, UniProt Q00987) (assay: HTRF assay of inhibition of the p53-MDM2 interaction). Conditions: GST-MDM2 and biotinylated p53 peptide, 37° C. 1 h.
Type: binding
Protocol: The ability of the compounds to inhibit the interaction between p53 and MDM2 proteins was measured by an HTRF (homogeneous time-resolved fluorescence) assay in which recombinant GST-tagged MDM2 binds to a peptide that resembles the MDM2-interacting region of p53 (Lane et al.). Binding of GST-MDM2 protein and p53-peptide (biotinylated on its N-terminal end) is registered by the FRET (fluorescence resonance energy transfer) between Europium (Eu)-labeled anti-GST antibody and streptavidin-conjugated Allophycocyanin (APC).
Test is performed in black flat-bottom 384-well plates (Costar) in a total volume of […] containing:90 nM biotinylate peptide, 160 ng/ml GST-MDM2, 20 nM streptavidin-APC (PerkinElmerWallac), 2 nM Eu-labeled anti-GST-antibody (PerkinElmerWallac), 0.2% bovine serum albumin (BSA), 1 mM dithiothreitol (DTT) and 20 mM […] (TBS) buffer as follows: Add 10 uL of GST-MDM2 (640 ng/ml working solution) in reaction buffer to each well. Add 10 uL diluted compounds (1:5 dilution in reaction buffer) to each well, mix by shaking. Add 20 uL biotinylated p53 peptide (180 nM working solution) in reaction buffer to each well and mix on shaker. Incubate at 37° C. for 1 h. Add 20 uL streptavidin-APC and Eu-anti-GST antibody mixture (6 nM Eu-anti-GST and 60 nM streptavidin-APC working solution) in TBS buffer with 0.2% BSA, shake at room temperature for 30 minutes and read using a TRF-capable plate reader at 665 and 615 nm (Victor 5, Perkin ElmerWallac). If not specified, the reagents were purchased from Sigma Chemical Co.

Sequence of recombinant GST-tagged MDM2 / p53 peptide (Q00987 whole entry): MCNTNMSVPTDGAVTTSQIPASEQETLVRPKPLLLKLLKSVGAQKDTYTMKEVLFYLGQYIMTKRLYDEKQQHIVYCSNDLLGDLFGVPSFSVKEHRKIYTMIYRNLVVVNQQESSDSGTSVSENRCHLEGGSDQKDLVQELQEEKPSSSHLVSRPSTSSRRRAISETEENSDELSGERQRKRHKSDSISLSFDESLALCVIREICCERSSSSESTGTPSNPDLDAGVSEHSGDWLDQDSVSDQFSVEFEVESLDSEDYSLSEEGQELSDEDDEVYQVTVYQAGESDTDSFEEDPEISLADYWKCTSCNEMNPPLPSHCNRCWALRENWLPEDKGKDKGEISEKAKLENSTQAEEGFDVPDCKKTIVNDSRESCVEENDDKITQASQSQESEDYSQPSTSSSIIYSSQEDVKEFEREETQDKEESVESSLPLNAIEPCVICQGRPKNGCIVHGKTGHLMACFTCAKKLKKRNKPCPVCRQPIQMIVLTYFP

| IC50 | SMILES |
| --- | --- |
| 100 nM | CCOc1cc(C(F)(F)F)ccc1C1=NC(c2ccc(Cl)cc2)C(c2ccc(Cl)cc2)N1C(=O)N1CCN(S(=O)(=O)C(C)C)CC1 (centres unmarked) [Example 6, [4,5-Bis-(4-chloro-phenyl)-2-(2-ethoxy-4-trifluoromethyl-phenyl)-4,5-dihydro-imidazol-1-yl]-[4-(propane-2-sulfonyl)-piperazin-1-yl]-methanone] |
| 1740 nM | CCOc1cc(C(F)(F)F)ccc1C1=NC(c2ccc(Cl)cc2)C(c2ccc(Cl)cc2)N1C(=O)N1CCC(C(=O)OC)CC1 (centres unmarked) [Example 16, 1-[4,5-Bis-(4-chloro-phenyl)-2-(2-ethoxy-4-trifluoromethyl-phenyl)-4,5-dihydro-imidazole-1-carbonyl]-piperidine-4-carboxylic acid methyl ester] |
| 800 nM | CCOc1cc(C(F)(F)F)ccc1C1=NC(c2ccc(Cl)cc2)C(c2ccc(Cl)cc2)N1C(=O)N1CCC(n2c(=O)[nH]c3ccccc32)CC1 (centres unmarked) [Example 26, 1-{1-[4,5-Bis-(4-chloro-phenyl)-2-(2-ethoxy-4-trifluoromethyl-phenyl)-4,5-dihydro-imidazole-1-carbonyl]-piperidin-4-yl}-1,3-dihydro-benzoimidazol-2-one] |
| 4260 nM | CCOc1cc(C(F)(F)F)ccc1C1=NC(c2ccc(Cl)cc2)C(c2ccc(Cl)cc2)N1C(=O)N(C)c1ccccn1 (centres unmarked) [Example 36, 4,5-Bis-(4-chloro-phenyl)-2-(2-ethoxy-4-trifluoromethyl-phenyl)-4,5-dihydro-imidazole-1-carboxylic acid methyl-pyridin-2-yl-amide] |
| 21 nM | CCOc1cc(C(F)(F)F)ccc1C1=NC(c2ccc(Cl)cc2)C(c2ccc(Cl)cc2)N1C(=O)N1CCC(NCC(=O)N(C)CCC#N)CC1 (centres unmarked) [Example 176, 2-{1-[4,5-Bis-(4-chloro-phenyl)-2-(2-ethoxy-4-trifluoromethyl-phenyl)-4,5-dihydro-imidazole-1-carbonyl]-piperidin-4-ylamino}-N-(2-cyano-ethyl)-N-methyl-acetamide] |
